Experimental data reported in ChEMBL document CHEMBL4482303, “Test system for measuring mest activity as well as methods and uses involving the same” (2012).

Assays:
[1] = molecular target: T1, Glycerol-3-phosphate acyltransferase 4 (Homo sapiens) (UniProt Q86UL3); test: (§1) Inhibition of GPAT4 (unknown origin) expressed in Sf9 cell membranes assessed as reduction in glycerol 3-phosphate acyltransferase activity at 0.03 uM using [3H]-glycerol 3-phosphate and palmitoyl CoA incubated for 60 mins by scintillation counting assay relative to control
T1 sequence (whole entry): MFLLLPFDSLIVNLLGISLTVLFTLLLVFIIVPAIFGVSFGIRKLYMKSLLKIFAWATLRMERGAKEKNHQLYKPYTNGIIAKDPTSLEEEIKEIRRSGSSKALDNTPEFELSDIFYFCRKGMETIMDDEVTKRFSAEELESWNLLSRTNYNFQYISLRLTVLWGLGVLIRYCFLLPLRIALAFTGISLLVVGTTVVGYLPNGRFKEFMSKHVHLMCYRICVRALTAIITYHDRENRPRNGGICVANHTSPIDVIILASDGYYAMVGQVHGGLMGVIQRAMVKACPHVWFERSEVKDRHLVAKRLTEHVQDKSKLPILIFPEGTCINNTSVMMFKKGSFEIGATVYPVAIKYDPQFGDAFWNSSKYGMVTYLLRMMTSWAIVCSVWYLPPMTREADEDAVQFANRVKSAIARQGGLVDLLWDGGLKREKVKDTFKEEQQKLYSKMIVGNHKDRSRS

[2] = molecular target: T1, Glycerol-3-phosphate acyltransferase 4 (Homo sapiens); test: (§2) Inhibition of GPAT4 (unknown origin) expressed in Sf9 cell membranes assessed as reduction in glycerol 3-phosphate acyltransferase activity at 10 uM using [3H]-glycerol 3-phosphate and palmitoyl CoA incubated for 60 mins by scintillation counting assay relative to control
[3] = molecular target: T1, Glycerol-3-phosphate acyltransferase 4 (Homo sapiens); test: (§3) Inhibition of GPAT4 (unknown origin) expressed in Sf9 cell membranes assessed as reduction in glycerol 3-phosphate acyltransferase activity at 3 uM using [3H]-glycerol 3-phosphate and palmitoyl CoA incubated for 60 mins by scintillation counting assay relative to control
[4] = molecular target: T2, Glycerol-3-phosphate acyltransferase 3 (Homo sapiens) (UniProt Q53EU6); test: Inhibition of GPAT3 (unknown origin) expressed in Sf9 cell membranes assessed as reduction in glycerol 3-phosphate acyltransferase activity at 0.03 uM using [3H]-glycerol 3-phosphate and palmitoyl CoA incubated for 60 mins by scintillation counting assay relative to control
T2 sequence (whole entry): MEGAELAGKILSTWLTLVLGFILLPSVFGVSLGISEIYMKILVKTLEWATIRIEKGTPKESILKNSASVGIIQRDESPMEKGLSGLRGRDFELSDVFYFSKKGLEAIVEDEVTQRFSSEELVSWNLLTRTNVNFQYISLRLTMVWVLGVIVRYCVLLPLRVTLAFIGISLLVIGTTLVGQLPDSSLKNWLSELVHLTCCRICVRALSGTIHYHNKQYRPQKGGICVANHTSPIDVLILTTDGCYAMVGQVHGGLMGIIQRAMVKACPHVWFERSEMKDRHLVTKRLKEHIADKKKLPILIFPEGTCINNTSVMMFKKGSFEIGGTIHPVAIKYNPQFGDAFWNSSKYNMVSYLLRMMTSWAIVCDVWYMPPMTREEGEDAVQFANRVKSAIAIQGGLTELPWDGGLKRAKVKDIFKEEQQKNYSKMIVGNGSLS

[5] = molecular target: T3, Mesoderm-specific transcript homolog protein (Homo sapiens) (UniProt Q5EB52); test: as §1, with “human recombinant MEST T580B (11 to 335 amino acids)” for “GPAT4 (unknown origin)”
T3 sequence (whole entry): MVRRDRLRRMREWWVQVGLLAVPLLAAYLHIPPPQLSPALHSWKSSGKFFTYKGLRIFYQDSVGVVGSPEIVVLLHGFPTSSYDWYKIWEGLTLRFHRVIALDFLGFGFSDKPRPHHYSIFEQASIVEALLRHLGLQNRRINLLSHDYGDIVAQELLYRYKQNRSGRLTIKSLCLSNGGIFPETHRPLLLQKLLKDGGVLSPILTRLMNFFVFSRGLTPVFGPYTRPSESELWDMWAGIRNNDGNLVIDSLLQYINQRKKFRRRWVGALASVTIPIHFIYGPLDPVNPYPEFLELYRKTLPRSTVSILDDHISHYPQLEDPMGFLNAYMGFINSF

[6] = molecular target: T4, Glycerol-3-phosphate acyltransferase 1, mitochondrial (Homo sapiens) (UniProt Q9HCL2); test: Inhibition of GPAT1 (unknown origin) expressed in Sf9 cell membranes assessed as reduction in glycerol 3-phosphate acyltransferase activity at 3 uM using [3H]-glycerol 3-phosphate and palmitoyl CoA incubated for 60 mins by scintillation counting assay relative to control
T4 sequence (whole entry): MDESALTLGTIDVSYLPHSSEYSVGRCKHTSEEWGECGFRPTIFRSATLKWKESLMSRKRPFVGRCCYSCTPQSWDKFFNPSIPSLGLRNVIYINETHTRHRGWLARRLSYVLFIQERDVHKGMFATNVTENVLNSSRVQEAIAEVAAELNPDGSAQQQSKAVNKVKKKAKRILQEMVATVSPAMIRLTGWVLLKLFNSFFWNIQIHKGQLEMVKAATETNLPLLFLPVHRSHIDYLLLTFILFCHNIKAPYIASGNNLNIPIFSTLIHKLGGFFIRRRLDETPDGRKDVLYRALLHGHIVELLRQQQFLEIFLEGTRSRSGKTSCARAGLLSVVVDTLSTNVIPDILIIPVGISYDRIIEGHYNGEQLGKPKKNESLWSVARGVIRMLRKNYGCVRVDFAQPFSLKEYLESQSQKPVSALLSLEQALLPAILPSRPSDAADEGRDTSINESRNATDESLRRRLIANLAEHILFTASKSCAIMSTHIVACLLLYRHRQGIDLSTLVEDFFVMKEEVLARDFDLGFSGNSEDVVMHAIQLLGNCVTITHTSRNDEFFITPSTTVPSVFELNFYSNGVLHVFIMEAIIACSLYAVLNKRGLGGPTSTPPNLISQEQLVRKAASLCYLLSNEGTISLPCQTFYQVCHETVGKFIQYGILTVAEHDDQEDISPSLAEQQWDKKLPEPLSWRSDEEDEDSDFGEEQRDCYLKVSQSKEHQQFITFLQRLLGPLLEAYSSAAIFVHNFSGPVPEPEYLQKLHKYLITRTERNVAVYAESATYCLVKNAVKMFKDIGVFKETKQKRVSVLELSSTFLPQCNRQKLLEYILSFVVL

[7] = molecular target: T2, Glycerol-3-phosphate acyltransferase 3 (Homo sapiens); test: Inhibition of GPAT3 (unknown origin) expressed in Sf9 cell membranes assessed as reduction in glycerol 3-phosphate acyltransferase activity at 10 uM using [3H]-glycerol 3-phosphate and palmitoyl CoA incubated for 60 mins by scintillation counting assay relative to control
[8] = molecular target: T4, Glycerol-3-phosphate acyltransferase 1, mitochondrial (Homo sapiens); test: Inhibition of GPAT1 (unknown origin) expressed in Sf9 cell membranes assessed as reduction in glycerol 3-phosphate acyltransferase activity at 0.03 uM using [3H]-glycerol 3-phosphate and palmitoyl CoA incubated for 60 mins by scintillation counting assay relative to control
[9] = molecular target: T2, Glycerol-3-phosphate acyltransferase 3 (Homo sapiens); test: (§4) Inhibition of GPAT3 (unknown origin) expressed in Sf9 cell membranes assessed as reduction in glycerol 3-phosphate acyltransferase activity at 0.3 uM using [3H]-glycerol 3-phosphate and palmitoyl CoA incubated for 60 mins by scintillation counting assay relative to control
[10] = molecular target: T1, Glycerol-3-phosphate acyltransferase 4 (Homo sapiens); test: (§5) Inhibition of GPAT4 (unknown origin) expressed in Sf9 cell membranes assessed as reduction in glycerol 3-phosphate acyltransferase activity at 0.1 uM using [3H]-glycerol 3-phosphate and palmitoyl CoA incubated for 60 mins by scintillation counting assay relative to control
[11] = molecular target: T2, Glycerol-3-phosphate acyltransferase 3 (Homo sapiens); test: Inhibition of GPAT3 (unknown origin) expressed in Sf9 cell membranes assessed as reduction in glycerol 3-phosphate acyltransferase activity at 0.1 uM using [3H]-glycerol 3-phosphate and palmitoyl CoA incubated for 60 mins by scintillation counting assay relative to control
[12] = molecular target: T3, Mesoderm-specific transcript homolog protein (Homo sapiens); test: as §4, with “human recombinant MEST T580B (11 to 335 amino acids)” for “GPAT3 (unknown origin)”
[13] = molecular target: T3, Mesoderm-specific transcript homolog protein (Homo sapiens); test: as §5, with “human recombinant MEST T579B (2 to 335 amino acids)” for “GPAT4 (unknown origin)”
[14] = molecular target: T4, Glycerol-3-phosphate acyltransferase 1, mitochondrial (Homo sapiens); test: Inhibition of GPAT1 (unknown origin) expressed in Sf9 cell membranes assessed as reduction in glycerol 3-phosphate acyltransferase activity at 0.1 uM using [3H]-glycerol 3-phosphate and palmitoyl CoA incubated for 60 mins by scintillation counting assay relative to control
[15] = molecular target: T2, Glycerol-3-phosphate acyltransferase 3 (Homo sapiens); test: (§6) Inhibition of GPAT3 (unknown origin) expressed in Sf9 cell membranes assessed as reduction in glycerol 3-phosphate acyltransferase activity at 1 uM using [3H]-glycerol 3-phosphate and palmitoyl CoA incubated for 60 mins by scintillation counting assay relative to control
[16] = molecular target: T1, Glycerol-3-phosphate acyltransferase 4 (Homo sapiens); test: Inhibition of GPAT4 (unknown origin) expressed in Sf9 cell membranes assessed as reduction in glycerol 3-phosphate acyltransferase activity at 1 uM using [3H]-glycerol 3-phosphate and palmitoyl CoA incubated for 60 mins by scintillation counting assay relative to control
[17] = molecular target: T1, Glycerol-3-phosphate acyltransferase 4 (Homo sapiens); test: Inhibition of GPAT4 (unknown origin) expressed in Sf9 cell membranes assessed as reduction in glycerol 3-phosphate acyltransferase activity at 0.3 uM using [3H]-glycerol 3-phosphate and palmitoyl CoA incubated for 60 mins by scintillation counting assay relative to control
[18] = molecular target: T4, Glycerol-3-phosphate acyltransferase 1, mitochondrial (Homo sapiens); test: Inhibition of GPAT1 (unknown origin) expressed in Sf9 cell membranes assessed as reduction in glycerol 3-phosphate acyltransferase activity at 1 uM using [3H]-glycerol 3-phosphate and palmitoyl CoA incubated for 60 mins by scintillation counting assay relative to control
[19] = molecular target: T3, Mesoderm-specific transcript homolog protein (Homo sapiens); test: as §2, with “human recombinant MEST T579B (2 to 335 amino acids)” for “GPAT4 (unknown origin)”
[20] = molecular target: T3, Mesoderm-specific transcript homolog protein (Homo sapiens); test: as §1, with “human recombinant MEST T579B (2 to 335 amino acids)” for “GPAT4 (unknown origin)”
[21] = molecular target: T4, Glycerol-3-phosphate acyltransferase 1, mitochondrial (Homo sapiens); test: Inhibition of GPAT1 (unknown origin) expressed in Sf9 cell membranes assessed as reduction in glycerol 3-phosphate acyltransferase activity at 10 uM using [3H]-glycerol 3-phosphate and palmitoyl CoA incubated for 60 mins by scintillation counting assay relative to control
[22] = molecular target: T3, Mesoderm-specific transcript homolog protein (Homo sapiens); test: as §3, with “human recombinant MEST T580B (11 to 335 amino acids)” for “GPAT4 (unknown origin)”
[23] = molecular target: T3, Mesoderm-specific transcript homolog protein (Homo sapiens); test: as §5, with “human recombinant MEST T580B (11 to 335 amino acids)” for “GPAT4 (unknown origin)”
[24] = molecular target: T3, Mesoderm-specific transcript homolog protein (Homo sapiens); test: as §2, with “human recombinant MEST T580B (11 to 335 amino acids)” for “GPAT4 (unknown origin)”
[25] = molecular target: T3, Mesoderm-specific transcript homolog protein (Homo sapiens); test: as §6, with “human recombinant MEST T580B (11 to 335 amino acids)” for “GPAT3 (unknown origin)”
[26] = molecular target: T3, Mesoderm-specific transcript homolog protein (Homo sapiens); test: Inhibition of human recombinant MEST T579B (2 to 335 amino acids) expressed in Sf9 cell membranes assessed as reduction in glycerol 3-phosphate acyltransferase activity using [3H]-glycerol 3-phosphate and palmitoyl CoA incubated for 60 mins by scintillation counting assay
[27] = molecular target: T2, Glycerol-3-phosphate acyltransferase 3 (Homo sapiens); test: Inhibition of GPAT3 (unknown origin) expressed in Sf9 cell membranes assessed as reduction in glycerol 3-phosphate acyltransferase activity at 3 uM using [3H]-glycerol 3-phosphate and palmitoyl CoA incubated for 60 mins by scintillation counting assay relative to control
[28] = molecular target: T3, Mesoderm-specific transcript homolog protein (Homo sapiens); test: (§7) Inhibition of human recombinant MEST T579B (2 to 335 amino acids) expressed in Sf9 cell membranes assessed as reduction in glycerol 3-phosphate acyltransferase activity at 1 uM using [3H]-glycerol 3-phosphate and palmitoyl CoA incubated for 60 mins by scintillation counting assay relative to control
[29] = molecular target: T3, Mesoderm-specific transcript homolog protein (Homo sapiens); test: as §7, with “0.3” for “1”
[30] = molecular target: T4, Glycerol-3-phosphate acyltransferase 1, mitochondrial (Homo sapiens); test: Inhibition of GPAT1 (unknown origin) expressed in Sf9 cell membranes assessed as reduction in glycerol 3-phosphate acyltransferase activity at 0.3 uM using [3H]-glycerol 3-phosphate and palmitoyl CoA incubated for 60 mins by scintillation counting assay relative to control
[31] = molecular target: T3, Mesoderm-specific transcript homolog protein (Homo sapiens); test: Inhibition of human recombinant MEST T579B (2 to 335 amino acids) expressed in Sf9 cell membranes assessed as reduction in glycerol 3-phosphate acyltransferase activity at 3 uM using [3H]-glycerol 3-phosphate and palmitoyl CoA incubated for 60 mins by scintillation counting assay relative to control

inhibition [1]: 6% | inhibition [2]: 54% | inhibition [3]: 29% | inhibition [4]: -9% | inhibition [5]: -6% | inhibition [6]: 47% | inhibition [7]: 57% | inhibition [8]: 4% | inhibition [9]: 12% | inhibition [10]: -2% | inhibition [11]: -4% | inhibition [12]: 8% | inhibition [13]: -6% | inhibition [14]: 10% | inhibition [15]: 26% | inhibition [16]: 9% | inhibition [17]: 15% | inhibition [18]: 29% | inhibition [19]: 69% | inhibition [20]: -5% | inhibition [21]: 72% | inhibition [22]: 45% | inhibition [23]: 10% | inhibition [24]: 76% | inhibition [25]: 18% | inhibition [26]: Dose-dependent effect | inhibition [27]: 38% | inhibition [28]: 27% | inhibition [29]: 24% | inhibition [30]: 11% | inhibition [31]: 51%
SMILES: O=C(CO)COP(=O)(O)O
